Columns and labels:
[1] = molar heat capacity at constant volume; conditions: Liquid, Vacuum adiabatic calorimetry
[2] = Liquid, isochoric method

CCCCCC[n+]1ccn(C)c1.O=S(=O)([N-]S(=O)(=O)C(F)(F)F)C(F)(F)F
[1]
Conditions | molar heat capacity at constant volume [J/K/mol]
325.26 K, Mass density=1344.14 kg/m3 | 609.39
325.39 K, Mass density=1344.14 kg/m3 | 608.49
325.51 K, Mass density=1344.14 kg/m3 | 608.94
325.63 K, Mass density=1344.14 kg/m3 | 608.49
325.75 K, Mass density=1344.14 kg/m3 | 609.83
325.88 K, Mass density=1344.14 kg/m3 | 608.94
326 K, Mass density=1344.14 kg/m3 | 608.04
326.13 K, Mass density=1344.14 kg/m3 | 606.7
326.26 K, Mass density=1344.14 kg/m3 | 608.49
328.58 K, Mass density=1344.14 kg/m3 | 609.83
328.7 K, Mass density=1344.14 kg/m3 | 608.49
328.82 K, Mass density=1344.14 kg/m3 | 607.6
328.94 K, Mass density=1344.14 kg/m3 | 606.25
329.07 K, Mass density=1344.14 kg/m3 | 607.15
329.19 K, Mass density=1344.14 kg/m3 | 609.39
329.31 K, Mass density=1344.14 kg/m3 | 609.83
329.43 K, Mass density=1344.14 kg/m3 | 605.36
333.09 K, Mass density=1344.14 kg/m3 | 612.07
333.21 K, Mass density=1344.14 kg/m3 | 606.25
333.33 K, Mass density=1344.14 kg/m3 | 609.39
333.45 K, Mass density=1344.14 kg/m3 | 613.86
333.57 K, Mass density=1344.14 kg/m3 | 607.6
333.7 K, Mass density=1344.14 kg/m3 | 610.73
333.82 K, Mass density=1344.14 kg/m3 | 613.41
333.94 K, Mass density=1344.14 kg/m3 | 609.83
341.28 K, Mass density=1344.14 kg/m3 | 615.2
341.4 K, Mass density=1344.14 kg/m3 | 610.73
341.52 K, Mass density=1344.14 kg/m3 | 617.44
341.64 K, Mass density=1344.14 kg/m3 | 612.96
341.76 K, Mass density=1344.14 kg/m3 | 620.12
341.88 K, Mass density=1344.14 kg/m3 | 615.65
342 K, Mass density=1344.14 kg/m3 | 614.75
342.12 K, Mass density=1344.14 kg/m3 | 618.78
348.64 K, Mass density=1344.14 kg/m3 | 619.23
348.76 K, Mass density=1344.14 kg/m3 | 617.89
348.88 K, Mass density=1344.14 kg/m3 | 621.91
348.99 K, Mass density=1344.14 kg/m3 | 620.12
349.11 K, Mass density=1344.14 kg/m3 | 618.78
349.23 K, Mass density=1344.14 kg/m3 | 623.7
349.35 K, Mass density=1344.14 kg/m3 | 617.44
349.47 K, Mass density=1344.14 kg/m3 | 622.81
349.58 K, Mass density=1344.14 kg/m3 | 619.68
350.36 K, Mass density=1323.92 kg/m3 | 625.05
350.41 K, Mass density=1323.92 kg/m3 | 624.15
350.53 K, Mass density=1323.92 kg/m3 | 623.26
350.64 K, Mass density=1323.92 kg/m3 | 622.36
350.76 K, Mass density=1323.92 kg/m3 | 625.49
350.88 K, Mass density=1323.92 kg/m3 | 624.6
350.99 K, Mass density=1323.92 kg/m3 | 621.02
351.11 K, Mass density=1323.92 kg/m3 | 621.91
351.23 K, Mass density=1323.92 kg/m3 | 623.26
351.35 K, Mass density=1323.92 kg/m3 | 620.12
351.46 K, Mass density=1323.92 kg/m3 | 621.02
351.58 K, Mass density=1323.92 kg/m3 | 622.36
351.7 K, Mass density=1323.92 kg/m3 | 620.57
351.82 K, Mass density=1323.92 kg/m3 | 621.47
351.93 K, Mass density=1323.92 kg/m3 | 619.68
352.03 K, Mass density=1323.92 kg/m3 | 621.47
360.03 K, Mass density=1323.92 kg/m3 | 626.39
360.19 K, Mass density=1323.92 kg/m3 | 624.15
360.3 K, Mass density=1323.92 kg/m3 | 628.18
360.42 K, Mass density=1323.92 kg/m3 | 622.81
360.53 K, Mass density=1323.92 kg/m3 | 625.05
360.65 K, Mass density=1323.92 kg/m3 | 622.36
360.76 K, Mass density=1323.92 kg/m3 | 623.26
360.88 K, Mass density=1323.92 kg/m3 | 621.02
360.99 K, Mass density=1323.92 kg/m3 | 621.47
361.11 K, Mass density=1323.92 kg/m3 | 622.81
361.22 K, Mass density=1323.92 kg/m3 | 620.57
361.34 K, Mass density=1323.92 kg/m3 | 627.28
365.26 K, Mass density=1323.92 kg/m3 | 624.15
365.35 K, Mass density=1323.92 kg/m3 | 629.52
365.47 K, Mass density=1323.92 kg/m3 | 627.28
365.58 K, Mass density=1323.92 kg/m3 | 625.49
365.69 K, Mass density=1323.92 kg/m3 | 632.65
365.81 K, Mass density=1323.92 kg/m3 | 622.36
365.92 K, Mass density=1323.92 kg/m3 | 629.07
366.04 K, Mass density=1323.92 kg/m3 | 627.28
366.15 K, Mass density=1323.92 kg/m3 | 630.41
366.27 K, Mass density=1323.92 kg/m3 | 623.7
366.38 K, Mass density=1323.92 kg/m3 | 629.97
372.87 K, Mass density=1323.92 kg/m3 | 635.78
372.96 K, Mass density=1323.92 kg/m3 | 634.44
373.07 K, Mass density=1323.92 kg/m3 | 631.76
373.18 K, Mass density=1323.92 kg/m3 | 633.1
373.29 K, Mass density=1323.92 kg/m3 | 636.68
373.41 K, Mass density=1323.92 kg/m3 | 629.07
373.52 K, Mass density=1323.92 kg/m3 | 634.89
373.63 K, Mass density=1323.92 kg/m3 | 629.97
373.74 K, Mass density=1323.92 kg/m3 | 631.31
373.86 K, Mass density=1323.92 kg/m3 | 638.02
373.97 K, Mass density=1323.92 kg/m3 | 636.68
374.08 K, Mass density=1323.92 kg/m3 | 638.92

[2]
Conditions | mass density [kg/m3]
325.26 K | 1344.14
350.36 K | 1323.92
